From ChEMBL document CHEMBL1149588, “Inhibition of colon cancer cell growth and antioxidant activity of bioactive compounds from Poncirus trifoliata (L.) Raf” (Bioorg Med Chem, 2007) come the findings set out here.

Activity calls are given as the source filed them. No cut-off for these calls is given here.

In data set [1] the test system is HT-29. In words: Induction of apoptosis in human HT29 cells at 5 uM. The data set is classed as functional, cell-based.
Data set [2] has as its system HT-29. Kind of data set: Antiproliferative activity against human HT29 cells at 5 uM after 24 hrs by MTT assay. The data set is classed as functional, cell-based. A general note: Tetrazolium dyes change colour on reduction, which living cells bring about.
Data set [3] can be described thus: Growth inhibition of monkey COS1 cells at 0.63 uM after 48 hrs by MTT assay. The data set is classed as cell-based, Macaca mulatta. Particulars: rhesus monkey, cos-1, 48 h.
Data set [4] in a line: Growth inhibition of monkey COS1 cells at 1.25 uM after 48 hrs by MTT assay. The data set is classed as cell-based, Macaca mulatta. Particulars: rhesus monkey, cos-1, 48 h.
The nature of data set [5]: Growth inhibition of monkey COS1 cells at 2.5 uM after 48 hrs by MTT assay. The data set is classed as cell-based, Macaca mulatta. Particulars: rhesus monkey, cos-1, 48 h.
Data set [6] in a line: Growth inhibition of monkey COS1 cells at 5 uM after 48 hrs by MTT assay. It counts as cell-based, Macaca mulatta. Particulars: rhesus monkey, cos-1, 48 h.

Turning to `CC[C@@]1(O)C(=O)OCc2c1cc1n(c2=O)Cc2cc3ccccc3nc2-1`, in data set [1], the result was Active.
Consider `CCC(CC[C@@H](C)[C@H]1CC[C@H]2[C@@H]3CC=C4C[C@@H](O)CC[C@]4(C)[C@H]3CC[C@]12C)C(C)C` (single isomer, unassigned) [BETA-SITOSTEROL], for which the outcome in data set [2] and in data set [1] was Active. In addition, the Activity result in data set [3], in data set [4], in data set [5] and in data set [6] was “Non-toxic” each time.
In the case of `COC(=O)C(O)(CC(=O)O)CC(=O)O`, the result in data set [2] and in data set [1] was Active. The Activity result in data set [3], in data set [4], in data set [5] and in data set [6] was “Non-toxic” throughout.
